No end group written: not given here.
B1: NK-Lysin: peptide, source Sus scrofa (peptide, listed as Amaranthus caudatus)
chain: GYFCESCRKIIQKLEDMVGPQPNEDTVTQAASQVCDKLKILRGLCKKIMRSFLRRISWDILTGKKPQAICVDIKICKE
B2: Holotricin 3: peptide, source Holotrichia diomphalia (peptide, listed as Holotrichia diomphalia)
chain: YGPGDGHGGGHGGGHGGGHGNGQGGGHGHGPGGGFGGGHGGGHGGGGRGGGGSGGGGSPGHGAGGGYPGGHGGGHHGGYQTHGY
modifications: Holotricin 3
notes: peptide, source Holotrichia diomphalia

Columns and labels:
[1] = tested on: Bacillus atrophaeus (B. atrophaeus); assay type: cell-based
[2] = tested on: Fusarium oxysporum f. sp. lycopersici (F. oxysporum); assay type: cell-based
[3] = tested on: Gram+ & Gram− bacteria, fungi, virus, mammalian/cancer cells; conditions: cited from earlier work
[4] = tested on: Fusarium oxysporum f. sp. lycopersici

Molecule	% Growth Inhibition, ProteCoat alone [1] [%]	% Growth Inhibition, ProteCoat alone [2] [%]	Activity [3]	growth at the lowest peptide concentration tested [4]	inhibition at the lowest peptide concentration tested ([4]; 48 h, 0.78 mg/ml)
FRLKFHI [ProteCoat, amino acid polymer consisting essentially of 7 amino acids]	0	44	Fungi	–	–
FRLKFHI [antimicrobial peptidic agent-7]	–	–	–	clear retardation of growth	less than 10%
B1	–	–	Gram+ & Gram−, Fungi	–	–
B2	–	–	Fungi	–	–
